Laboratory results taken from BindingDB's records for doi:10.3109/14756366.2010.550890 (Jamia Hamdard University, 2011).

Tests used:
[1] = molecular target: T1, Prostaglandin G/H synthase 1 (Ovis aries, UniProt P05979); assay: COX Inhibition Assay; settings: pH 8; 37 °C
T1 sequence (P05979 whole entry): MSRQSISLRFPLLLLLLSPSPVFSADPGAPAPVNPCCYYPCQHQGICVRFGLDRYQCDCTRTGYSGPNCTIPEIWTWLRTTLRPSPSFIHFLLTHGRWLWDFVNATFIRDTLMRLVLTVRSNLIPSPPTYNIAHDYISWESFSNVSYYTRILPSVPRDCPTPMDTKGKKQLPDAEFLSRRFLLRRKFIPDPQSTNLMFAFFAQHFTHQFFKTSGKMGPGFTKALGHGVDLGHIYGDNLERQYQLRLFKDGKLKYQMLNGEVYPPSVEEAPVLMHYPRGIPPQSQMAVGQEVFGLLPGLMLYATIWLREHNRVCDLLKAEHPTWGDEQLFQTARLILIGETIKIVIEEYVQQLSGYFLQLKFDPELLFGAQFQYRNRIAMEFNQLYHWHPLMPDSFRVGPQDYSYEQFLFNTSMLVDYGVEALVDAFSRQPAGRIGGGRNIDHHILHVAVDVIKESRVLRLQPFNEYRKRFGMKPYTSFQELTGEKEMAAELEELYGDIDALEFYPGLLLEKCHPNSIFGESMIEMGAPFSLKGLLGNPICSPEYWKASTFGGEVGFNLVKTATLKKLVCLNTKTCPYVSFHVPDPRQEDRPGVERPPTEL
Protocol: (§1) Stock solutions of test compounds were dissolved in a minimum volume of dimethyl sulphoxide (DMSO) toobtain 0.001, 0.01, 0.1, 1, 10, 100, and 500 μM in a final volume of 1 mL. In brief, haematin reconstituted purified COX-1 and COX-2 enzymes in a reaction buffer containing Tris-hydrochloric acid (HCl) (0.1 M, pH 8.0), 5 mM ethylenediaminetetraacetic acid (EDTA), and 2 mM phenol were pre-incubated at room temperature for 1 h with test compounds followed by the addition of AA (100 μM)for 2 min at 37°C. Reactions were terminated by adding 50 μL of 1 M HCl followed by the addition of 100 μL of stannous chloride.

[2] = molecular target: T2, Prostaglandin G/H synthase 2 (Ovis aries, UniProt P79208); assay: COX Inhibition Assay; settings: pH 8; 37 °C
T2 sequence (P79208 whole entry): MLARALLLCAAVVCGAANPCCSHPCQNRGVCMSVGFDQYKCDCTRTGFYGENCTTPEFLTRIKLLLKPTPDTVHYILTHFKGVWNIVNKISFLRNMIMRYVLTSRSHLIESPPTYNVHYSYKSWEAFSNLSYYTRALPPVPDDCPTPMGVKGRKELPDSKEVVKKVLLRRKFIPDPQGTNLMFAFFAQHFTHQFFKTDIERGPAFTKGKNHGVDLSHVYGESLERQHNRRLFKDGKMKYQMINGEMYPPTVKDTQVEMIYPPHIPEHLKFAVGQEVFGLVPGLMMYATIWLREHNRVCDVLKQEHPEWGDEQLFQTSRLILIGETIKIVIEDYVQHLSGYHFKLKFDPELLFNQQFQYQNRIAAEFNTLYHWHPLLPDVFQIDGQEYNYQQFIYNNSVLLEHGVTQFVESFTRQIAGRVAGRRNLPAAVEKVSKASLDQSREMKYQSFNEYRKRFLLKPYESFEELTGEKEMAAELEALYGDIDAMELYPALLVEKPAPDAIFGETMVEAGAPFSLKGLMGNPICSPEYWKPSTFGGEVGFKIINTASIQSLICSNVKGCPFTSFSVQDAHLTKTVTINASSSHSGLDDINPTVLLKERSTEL
Protocol: as §1

| SMILES | IC50 [1] | IC50 [2] |
| --- | --- | --- |
| O=c1oc2ccccc2cc1-c1nnc(-c2ccccc2)o1 [3-(5-Phenyl-[1,3,4]oxadiazol-2-yl)-chromen-2-one (4a)] | < 100 µM | 8.7 µM |
| Cc1ccc(-c2nnc(-c3cc4ccccc4oc3=O)o2)cc1 [3-(5-p-Tolyl-[1,3,4]oxadiazol-2-yl)-chromen-2-one (4c)] | > 100 µM | 1.18 µM |
| O=c1oc2ccccc2cc1-c1nnc(Nc2ccc(Cl)cc2)o1 [3-[5-(4-Chloro-phenylamino)-[1,3,4]oxadiazol-2-yl]-chromen-2-one (6b)] | > 100 µM | > 100 µM |
| O=c1oc2ccccc2cc1-c1nnc(-c2ccc(Cl)cc2)o1 [3-[5-(4-Chloro-phenyl)-[1,3,4]oxadiazol-2-yl]-chromen-2-one (4b)] | 35 µM | 1.2 µM |
| Cc1ccccc1Nc1nnc(-c2cc3ccccc3oc2=O)o1 [3-(5-o-Tolylamino-[1,3,4]oxadiazol-2-yl)-chromen-2-one (6e)] | > 100 µM | 36.6 µM |
| O=c1oc2ccccc2cc1-c1nnc(-c2ccc(Cl)cc2Cl)o1 [3-[5-(2,4-Dichloro-phenyl)-[1,3,4]oxadiazol-2-yl]-chromen-2-one (4e)] | 41.6 µM | 0.4 µM |
| O=C(Nc1nnc(-c2cc3ccccc3oc2=O)o1)c1ccc(Cl)cc1 [4-Chloro-N-[5-(2-oxo-2H-chromen-3-yl)-[1,3,4]oxadiazol-2-yl]-benzamide (8b)] | > 100 µM | > 100 µM |
